{"source": "patent US20090220445A1", "about": "“HAIR CARE COMPOSITIONS AND METHODS FOR INCREASING HAIR DIAMETER AND DELIVERING ADDITIONAL BENEFITS” (priority 2008, published 2009)", "test_system": "Primary human dermal papilla cells", "test": "Synergy study: survival of metabolically stressed dermal papilla cells (ATP, Cell Titer Glo)", "assay_type": "cell-based", "conditions": "cells metabolically stressed 48 hours in reduced media, control 100% water", "experimental": "The dermal papilla, in normal human hair, is the control center for hair diameter. Increasing survival of dermal papilla cells in situ leads to increased hair diameter. Accordingly, an increase in survival of dermal papilla cells correlates with an increase in hair diameter.\nPrimary human dermal papilla cells were metabolically stressed for 48 hours in reduced standard tissue culture media. During this period of stress the cells were treated with the mixtures or individual ingredients below. After 48 hr the metabolic activity of the cells was measured by the amount of ATP using the Cell Titer Glo™ kit (Promega)."}
{"smiles": "Cn1c(=O)c2c(ncn2C)n(C)c1=O", "note": "[Caffeine]", "values": [{"measurement": "Survival rate: % Change from Control", "setting": "0.05%", "value": "+41%"}]}
{"smiles": "NC(=O)c1cccnc1", "note": "[Niacinamide]", "values": [{"measurement": "Survival rate: % Change from Control", "setting": "0.006%", "value": "−8", "unit": "%"}]}
{"smiles": "CC(C)(CO)[C@@H](O)C(=O)NCCCO", "note": "[Panthenol]", "values": [{"measurement": "Survival rate: % Change from Control", "setting": "0.15%", "value": "+6%"}]}
